Molecular target: T1, human orexin type 2 receptor (Homo sapiens, UniProt O43614)
T1 construct: human orexin type 2 receptor cDNA was inserted into pcDNA3.1(+) plasmid vector (Invitrogen); expressed in transfected cells
T1 sequence (O43614 1-444): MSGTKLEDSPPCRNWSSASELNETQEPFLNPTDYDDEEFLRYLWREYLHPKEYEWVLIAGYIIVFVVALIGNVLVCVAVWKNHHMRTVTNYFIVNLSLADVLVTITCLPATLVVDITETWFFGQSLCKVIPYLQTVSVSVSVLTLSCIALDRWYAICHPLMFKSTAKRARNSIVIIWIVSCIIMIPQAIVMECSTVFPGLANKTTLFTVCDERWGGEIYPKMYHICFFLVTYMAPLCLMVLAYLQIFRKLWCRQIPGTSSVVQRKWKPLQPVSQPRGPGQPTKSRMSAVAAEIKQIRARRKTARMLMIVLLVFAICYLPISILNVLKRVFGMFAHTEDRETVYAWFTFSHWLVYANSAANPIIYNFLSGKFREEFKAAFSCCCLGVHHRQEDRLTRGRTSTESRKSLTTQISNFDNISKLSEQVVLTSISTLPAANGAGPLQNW
Test: Measurement of orexin type 2 receptor agonist activity (calcium fluorescence, CHO cells expressing hOX2R)
Type: cell-based
Settings: test compound 3 μM; CHO cells expressing human OX2 receptor; DMSO = 0%, orexin A (human) = 100%
Procedure, shortened: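 CHO-dhfr cells stably expressing hOX2R, loaded with Fluo-4 AM in HBSS/20 mM HEPES/0.1% BSA with probenecid, then given test compound. Calcium fluorescence was read for about 2 min 40 sec. Activity (%) was scaled between DMSO (0%) and 10 nM final human orexin A (100%).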

Row | Compound | OX2R agonist activity (3 μM, %) [%]
1 | COCS(=O)(=O)N[C@H]1CCN(C(=O)C2CCC2)[C@H]1Cc1cccc(-c2cccc(F)c2)c1 [Example 312, N-((2S,3S)-1-(cyclobutylcarbonyl)-2-((3′-fluorobiphenyl-3-yl)methyl)pyrrolidin-3-yl)-1-methoxymethanesulfonamide] | 103
2 | CS(=O)(=O)N[C@H]1CCN(C(=O)N2CCC2)[C@H]1Cc1cccc(-c2cccc(F)c2)c1 [Example 313, N-((2S,3S)-1-(azetidin-1-ylcarbonyl)-2-((3′-fluorobiphenyl-3-yl)methyl)pyrrolidin-3-yl)methanesulfonamide] | 100
3 | COC1(C(=O)N2CC[C@H](NS(C)(=O)=O)[C@@H]2Cc2cccc(-c3cccc(F)c3)c2)CCC1 [Example 314, N-((2S,3S)-2-((3′-fluorobiphenyl-3-yl)methyl)-1-((1-methoxycyclobutyl)carbonyl)pyrrolidin-3-yl)methanesulfonamide] | 107
4 | CS(=O)(=O)N[C@H]1CCN(C(=O)C2CCC2)[C@H]1Cc1csc(-c2cccc(F)c2)n1 [Example 320, N-((2S,3S)-1-(cyclobutylcarbonyl)-2-((2-(3-fluorophenyl)-1,3-thiazol-4-yl)methyl)pyrrolidin-3-yl)methanesulfonamide] | 103
5 | O=C(C1CCC1)N1CC[C@H](NS(=O)(=O)C2CC2)[C@@H]1Cc1csc(-c2ccccc2)n1 [Example 321, N-((2S,3S)-1-(cyclobutylcarbonyl)-2-((2-phenyl-1,3-thiazol-4-yl)methyl)pyrrolidin-3-yl)cyclopropanesulfonamide] | 104
6 | COCS(=O)(=O)N[C@H]1CCN(C(=O)C2CCC2)[C@H]1Cc1cccc(-c2ccccc2)c1 [Example 324, N-((2S,3S)-2-(biphenyl-3-ylmethyl)-1-(cyclobutylcarbonyl)pyrrolidin-3-yl)-1-methoxymethanesulfonamide] | 103
7 | CS(=O)(=O)N[C@H]1CCN(C(=O)C2CCO2)[C@H]1Cc1cccc(-c2cccc(F)c2)c1 (stereo partly drawn) [Example 328, N-((2S,3S)-2-((3′-fluorobiphenyl-3-yl)methyl)-1-(oxetan-2-ylcarbonyl)pyrrolidin-3-yl)methanesulfonamide] | 104
8 | CS(=O)(=O)N[C@H]1CCN(C(=O)C2(O)CCC2)[C@H]1Cc1csc(-c2cc(F)cc(F)c2)n1 [Example 339, N-((2S,3S)-2-((2-(3,5-difluorophenyl)-1,3-thiazol-4-yl)methyl)-1-((1-hydroxycyclobutyl)carbonyl)pyrrolidin-3-yl)methanesulfonamide] | 102
9 | CS(=O)(=O)N[C@H]1CCN(C(=O)N2CCC2)[C@H]1Cc1csc(-c2cc(F)cc(F)c2)n1 [Example 340, N-((2S,3S)-1-(azetidin-1-ylcarbonyl)-2-((2-(3,5-difluorophenyl)-1,3-thiazol-4-yl)methyl)pyrrolidin-3-yl)methanesulfonamide] | 103
10 | CS(=O)(=O)N[C@H]1CCN(C(=O)N2CC(F)C2)[C@H]1Cc1cccc(-c2cccc(F)c2)c1 [Example 341, N-((2S,3S)-1-((3-fluoroazetidin-1-yl)carbonyl)-2-((3′-fluorobiphenyl-3-yl)methyl)pyrrolidin-3-yl)methanesulfonamide] | 98
11 | CS(=O)(=O)N[C@H]1CCN(C(=O)N2CC(F)(F)C2)[C@H]1Cc1cccc(-c2cccc(F)c2)c1 [Example 342, N-((2S,3S)-1-((3,3-difluoroazetidin-1-yl)carbonyl)-2-((3′-fluorobiphenyl-3-yl)methyl)pyrrolidin-3-yl)methanesulfonamide] | 109
12 | CC1CCN1C(=O)N1CC[C@H](NS(C)(=O)=O)[C@@H]1Cc1cccc(-c2cccc(F)c2)c1 (stereo partly drawn) [Example 343, N-((2S,3S)-2-((3′-fluorobiphenyl-3-yl)methyl)-1-((2-methylazetidin-1-yl)carbonyl)pyrrolidin-3-yl)methanesulfonamide] | 107
